Data reported in ChEMBL document CHEMBL1150193, “Euglobal T1, a New Euglobal from Eucalyptus tereticornis” (J Nat Prod, 1991).
Activity calls are given as the source filed them. The calls are words filed in the database; no cut-off is given here.

Test system: human gammaherpesvirus 4
Assay: Inhibition of Epstein-Barr virus early antigen activation

Row | Structure (SMILES) | Activity
1 | CC(C)CC(=O)c1c(O)c(C=O)c2c(c1O)C[C@H]1C[C@H](C(C)C)C=C[C@@]1(C)O2 | inactive
2 | CC(C)CC(=O)c1c(O)c(C=O)c(O)c2c1O[C@]1(C)C=C[C@@H](C(C)C)C[C@@H]1C2 | inactive
